Measurements reported in patent US8846675B2, “N-linked heterocyclic receptor agonists for the treatment of diabetes and metabolic disorders” (Cymabay Therapeutics, Inc., priority 2007, dated 2014).

The compounds below were run against T1, IC-GPCR2 (Homo sapiens, UniProt Q8TDV5) (assay: Stimulation of cAMP in CHO cell line stably expressing IC-GPCR2 (HTRF cAMP dynamic kit)). Conditions: 3 μM compound; relative to maximal activity of 5-Ethyl-2-{4-[4-(4-tetrazol-1-yl-phenoxymethyl)-thiazol-2-yl]-piperidin-1-yl}-pyrimidine (=100%); IC-GPCR2 stably expressing CHO cells, 30 minutes.
T1 construct: expressed in transfected cells
T1 sequence (Q8TDV5 1-335 S309L): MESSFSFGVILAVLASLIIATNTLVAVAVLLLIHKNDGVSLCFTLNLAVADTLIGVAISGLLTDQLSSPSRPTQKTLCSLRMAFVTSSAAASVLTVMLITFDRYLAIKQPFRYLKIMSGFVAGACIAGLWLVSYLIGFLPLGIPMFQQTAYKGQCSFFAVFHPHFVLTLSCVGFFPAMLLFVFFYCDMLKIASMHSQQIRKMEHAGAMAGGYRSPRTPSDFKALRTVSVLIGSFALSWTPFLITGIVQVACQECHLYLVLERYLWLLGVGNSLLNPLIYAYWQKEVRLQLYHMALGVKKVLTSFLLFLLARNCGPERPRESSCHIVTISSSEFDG
Type: cell-based
Procedure: This assay was developed using a stable cell line expressing IC-GPCR-2, generated as follows. IC-GPCR2 (Seq. ID No. 1) was cloned into Gateway pDEST 40vector (Invitrogen), using the Gateway cloning system (invitrogen) according to the manufacturers instructions. A stable cell line was generated by transfecting a 10 cm plate of CHO cells (source) with 8 ug of this construct using Transit-CHO transfection kit (Mirus). CHO cells were plated the day prior to transfection at a density of 3,000,000 cells/plate. Clones were selected using the antibiotic G418 at 500 ug/ml. 23 clones were picked and assayed for the expression of the receptor by measuring changes in intracellular cAMP levels in response to an IC-GPCR2 agonist (Arena 51).
To measure cAMP activity in response to IC-GPCR2 agonist, the clones were plated in 96 well plates at 17500 cells per well. On the day after plating, cells were incubated with the IC-CPCR2 agonist at […] for 30 minutes in Ham's F12 Media (Gibco) with 0.04% DMSO. cAMP was measured using the cAMP dynamic kit from C is Bio (Bedford, Mass.) according to the manufacturers instructions. Briefly, cells were lysed, and cAMP levels determined by competitive immunoassay using D2 labeled cAMP, and europium cryptate tagged anti cAMP antibody. When in close proximity, the D2 and europium cryptate undergo fluorescence resonance energy transfer (FRET), which is measured as a fluorescence ratio (665 nm/620 nm). Unlabelled cAMP in the cell lysatc competed with the D2 labeled cAMP for the europium crypate labeled antibody. The resulting decrease in FRET signal corresponded to intracellular cAMP levels. Fluorescence was read on a BMG Labtech PHERAstar, software version 1.50.
The clone with the greatest response to IC-GPCR2 agonist was selected for the screening assay.
Compounds were dissolved in 100% DMSO to a concentration of […] to provide stock solutions. To determine activity against IC-GPCR2, compounds were incubated with IC-GPCR2 stably expressing cells (described above), at 6-8 concentrations ranging from 0.00003 to 10 micromolar, in 96 well plates, in 50 ul of Hams F12 media for 30 minutes. Cells were plated at 17500 cells per well 1 day before running the assay. All compounds were also screened against the parental CHO cells. cAMP was measured using the cAMP dynamic kit from Cis Bio (Bedford, Mass.), according to the manufacturer's instructions. Briefly, cells were lysed and cAMP levels determined by competitive immunoassay using D2 labeled cAMP, and europium cryptate tagged anti cAMP antibody. When in close proximity, the D2 and europium cryptate undergo fluorescence resonance energy transfer (FRET), which is measured as a fluorescence ratio (665 nm/620 nm). Unlabelled cAMP in the cell lysate competed with the D2 labeled cAMP for the europium crypate labeled antibody. The resulting decrease in FRET signal corresponded to intracellular cAMP levels
To determine percent activity for a tested compound, the FRET signal value obtained at a particular concentration are compared to the Maximal FRET signal value obtained for 5-Ethyl-2-{4-[4-(4-tetrazol-1-yl-phenoxymethyl)-thiazol-2-yl]-piperidin-1-yl}-pyrimidine. The maximal activity of 5-Ethyl-2-{4-[4-(4-tetrazol-1-yl-phenoxymethyl)-thiazol-2-yl]-piperidin-1-yl}-pyrimidine is designated as 100% activity. Typically, the concentration of 5-Ethyl-2-{4-[4-(4-tetrazol-1-yl-phenoxymethyl)-thiazol-2-yl]-piperidin-1-yl}-pyrimidine in the assay was approximately 0.1 μM. The synthesis of 5-Ethyl-2-{4-[4-(4-tetrazol-1-yl-phenoxymethyl)-thiazol-2-yl]-piperidin-1-yl}-pyrimidine is disclosed in co-owned pending U.S. patent application Ser. No. 11/964,461, herein incorporated by reference. Activities of compounds that were tested are shown in Table 1 below and are expressed as % activity at 3 μM compound compared to the maximal activity of 5-Ethyl-2-{4-[4-(4-tetrazol-1-yl-phenoxymethyl)-thiazol-2-yl]-piperidin-1-yl}-pyrimidine at 3 μM.

| Structure (SMILES) | % activity at 3 μM [%] |
| --- | --- |
| CCOC(=O)CCCc1cnc(N2CCC(n3ncc(COc4ccc(-n5cnnn5)nc4)n3)CC2)nc1 [Example 58, Ethyl 4-(2-(4-(4-((6-(1H-tetrazol-1-yl)pyridin-3-yloxy)methyl)-2H-1,2,3-triazol-2-yl)piperidin-1-yl)pyrimidin-5-yl)butanoate] | 79.55 |
| O=C(c1cnc(N2CCC(n3ncc(COc4ccc(-n5cnnn5)nc4)n3)CC2)nc1)N1CCOCC1 [Example 61] | 43.59 |
| O=C(c1ncc(Br)cn1)N1CCC(n2ncc(COc3ccc(-n4cnnn4)nc3)n2)CC1 [Example 62, (4-(4-((6-(1H-tetrazol-1-yl)pyridin-3-yloxy)methyl)-2H-1,2,3-triazol-2-yl)piperidin-1-yl)(5-bromopyrimidin-2-yl)methanone] | 32.06 |
| FC(F)(F)c1cnc(N2C3CCC2CC(n2ncc(COc4ccc(-n5cnnn5)nc4)n2)C3)nc1 (stereo not drawn) [Example 71, exo-3-(4-((6-(1H-Tetrazol-1-yl)pyridin-3-yloxy)methyl)-2H-1,2,3-triazol-2-yl)-8-(5-(trifluoromethyl)pyrimidin-2-yl)-8-azabicyclo[3.2.1]octane] | 70.78 |
| C=CCOC(=O)N1CCC(n2ncc(COc3ccc(-n4cnnn4)nc3)n2)CC1 [Example 77, Allyl 4-(4-((6-(1H-tetrazol-1-yl)pyridin-3-yloxy)methyl)-2H-1,2,3-triazol-2-yl)piperidine-1-carboxylate] | 69.86 |
| COc1ccc(-c2cnc(N3CCC(n4ncc(COc5ccc(-n6cnnn6)nc5)n4)CC3)nc2)cc1 [Example 80, 2-(4-(4-((6-(1H-tetrazol-1-yl)pyridin-3-yloxy)methyl)-2H-1,2,3-triazol-2-yl)piperidin-1-yl)-5-(4-methoxyphenyl)pyrimidine] | 77.53 |
| CCOC(=O)c1cnc(N2CCC(n3ncc(COc4ccc(-n5cnnn5)nc4)n3)CC2)s1 [Example 81, Ethyl 2-(4-(4-((6-(1H-tetrazol-1-yl)pyridin-3-yloxy)methyl)-2H-1,2,3-triazol-2-yl)piperidin-1-yl)thiazole-5-carboxylate] | 32.98 |

Further lines, results first:

| % activity at 3 μM [%] | Structure (SMILES) |
| --- | --- |
| 27.86 | CCOC(=O)c1cnc(N2CCC(n3ncc(COc4ccc(-n5cnnn5)nc4)n3)CC2)nc1 [Example 60] |
| 66.18 | Cc1nc(-n2cncn2)ccc1OCc1cnn(C2CCN(c3ncc(C(F)(F)F)cn3)CC2)n1 [Example 64, 2-(4-(4-((2-Methyl-6-(1H-1,2,4-triazol-1-yl)pyridin-3-yloxy)methyl)-2H-1,2,3-triazol-2-yl)piperidin-1-yl)-5-(trifluoromethyl)pyrimidine] |
| 70.03 | CCc1cnc(N2CCC(n3ncc(COc4ccc(-n5cncn5)nc4C)n3)CC2)nc1 [Example 65, 5-Ethyl-2-(4-(4-((2-methyl-6-(1H-1,2,4-triazol-1-yl)pyridin-3-yloxy)methyl)-2H-1,2,3-triazol-2-yl)piperidin-1-yl)pyrimidine] |
| 80.00 | CCc1cnc(N2CCC(n3cc(COc4ccc(-n5cnnn5)cc4F)c(C(F)(F)F)n3)CC2)nc1 [Example 66, 5-Ethyl-2-(4-(4-((2-fluoro-4-(1H-tetrazol-1-yl)phenoxy)methyl)-3-(trifluoromethyl)-1H-pyrazol-1-yl)piperidin-1-yl)pyrimidine] |
| 57.87 | CCc1cnc(N2CCC(n3cc(COc4ccc(S(C)(=O)=O)cc4F)c(C(F)(F)F)n3)CC2)nc1 [Example 67, 5-Ethyl-2-(4-(4-((2-fluoro-4-(methylsulfonyl)phenoxy)methyl)-3-(trifluoromethyl)-1H-pyrazol-1-yl)piperidin-1-yl)pyrimidine] |
| 74.11 | CCc1cnc(N2CCC(n3ncc(COc4ccc(-n5cnnn5)cc4F)c3C(F)(F)F)CC2)nc1 [Example 68, 5-Ethyl-2-(4-(4-((2-fluoro-4-(1H-tetrazol-1-yl)phenoxy)methyl)-5-(trifluoromethyl)-1H-pyrazol-1-yl)piperidin-1-yl)pyrimidine] |
| 55.22 | CC1CC(n2ncc(COc3ccc(-n4cnnn4)cc3F)n2)CCN1c1ncc(Cl)cn1 (stereo not drawn) [Example 69, 5-Chloro-2-(4-(4-((2-fluoro-4-(1H-tetrazol-1-yl)phenoxy)methyl)-2H-1,2,3-triazol-2-yl)-2-methylpiperidin-1-yl)pyrimidine] |
| 66.77 | CC1CC(n2ncc(COc3ccc(-n4cnnn4)cc3F)n2)CCN1c1ncc(C(F)(F)F)cn1 (stereo not drawn) [Example 70, 2-(4-(4-((2-Fluoro-4-(1H-tetrazol-1-yl)phenoxy)methyl)-2H-1,2,3-triazol-2-yl)-2-methylpiperidin-1-yl)-5-(trifluoromethyl)pyrimidine] |
| 56.39 | C=CCOC(=O)N1CCC(n2ncc(COc3ccc(-n4cnnn4)cc3F)n2)CC1 [Example 76, Allyl 4-(4-((2-fluoro-4-(1H-tetrazol-1-yl)phenoxy)methyl)-2H-1,2,3-triazol-2-yl)piperidine-1-carboxylate] |
| 57.13 | CCCCCc1cnc(N2CCC(n3ncc(COc4ccc(-n5cnnn5)nc4)n3)CC2)nc1 [Example 78, 2-(4-(4-((6-(1H-tetrazol-1-yl)pyridin-3-yloxy)methyl)-2H-1,2,3-triazol-2-yl)piperidin-1-yl)-5-pentylpyrimidine] |

Same assay, conditions: 3 μM compound; relative to maximal activity of 5-Ethyl-2-{4-[4-(4-tetrazol-1-yl-phenoxymethyl)-thiazol-2-yl]-piperidin-1-yl}-pyrimidine (=100%); IC-GPCR2 stably expressing CHO cells, 30 minutes; 3 µM

| Structure (SMILES) | % activity at 3 μM [%] |
| --- | --- |
| CC(C)(C)OC(=O)N1C2CCC1CC(n1ncc(COc3ccc(-n4cnnn4)nc3)n1)C2 (stereo not drawn) [Example 72, endo-tert-Butyl 3-(4-((6-(1H-tetrazol-1-yl)pyridin-3-yloxy)methyl)-2H-1,2,3-triazol-2-yl)-8-azabicyclo[3.2.1]octane-8-carboxylate] | 60.55 |
| CC(C)(C)OC(=O)N1C2CCC1CC(n1ncc(COc3ccc(-n4cnnn4)nc3)n1)C2 (stereo not drawn) [Example 73, exo-tert-Butyl 3-(4-((6-(1H-tetrazol-1-yl)pyridin-3-yloxy)methyl)-2H-1,2,3-triazol-2-yl)-8-azabicyclo[3.2.1]octane-8-carboxylate] | 84.07 |
| Fc1cnc(N2C3CCC2CC(n2ncc(COc4ccc(-n5cnnn5)nc4)n2)C3)nc1 (stereo not drawn) [Example 74, endo-3-(4-((6-(1H-tetrazol-1-yl)pyridin-3-yloxy)methyl)-2H-1,2,3-triazol-2-yl)-8-(5-fluoropyrimidin-2-yl)-8-azabicyclo[3.2.1]octane] | 61.88 |
| Fc1cnc(N2C3CCC2CC(n2ncc(COc4ccc(-n5cnnn5)nc4)n2)C3)nc1 (stereo not drawn) [Example 75, exo-3-(4-((6-(1H-Tetrazol-1-yl)pyridin-3-yloxy)methyl)-2H-1,2,3-triazol-2-yl)-8-(5-fluoropyrimidin-2-yl)-8-azabicyclo[3.2.1]octane] | 47.94 |
